Assay results taken from patent US9951050B2, “Method of inhibiting DYRK1B” (4SC Discovery GmbH, priority 2013, dated 2018).
“Also recorded” adds a separate entry of the source.

Experiments:
[1] = system: GLI1 protein expression in PANC1 cells; experiment: Western blot of PANC1 pancreatic cancer cells; type: cell-based, human; details: for GLI1 protein expression: GDC-0449 0.5 μM
Description: (§1) DAOY cells (ATCC) were grown in MEM media (PAA Laboratories, Germany) supplemented with 10% fetal bovine serum (FBS) (PAA Laboratories, Germany), penicillin (62.5 μg/ml) and streptomycin ([…]) at 37° C. in an atmosphere containing 5% CO2. BSZ2 cells (So et al., 2006) were grown in 154-CF media (Life Technologies, UK) supplemented with 2% heat inactivated (56° C. for 30 minutes) and chelexed fetal bovine serum (FBS) (PAA Laboratories, Germany) (FBS was chelexed by adding to 50 mL FBS 10 g Chelex 100 (Bio-Rad Laboratories GmbH, Germany) followed by stirring for 60 min at RT; chelexed FBS was sterile filtered prior to use), penicillin (62.5 μg/ml) and streptomycin ([…]) at 37° C. in an atmosphere containing 5% CO2. Panc-1 and A673 cells (ATCC) were grown in DMEM media (PAA Laboratories, Germany) supplemented with 10% fetal bovine serum (FBS) (PAA Laboratories, Germany), penicillin (62.5 μg/ml) and streptomycin ([…]) at 37° C. in an atmosphere containing 5% CO2. For 3-dimensional (3D) cultures, 5×10^3 cells were seeded in 12-well plates in 0.4% select agar on top of 0.5% bottom select agar (Life Technologies, Germany) according to standard protocols of anchorage independent growth assays (Eberl et al., 2012). 3D cultures were grown for 4-6 weeks at 37° C. in a humidified atmosphere containing 5% CO2. Colony formation was documented on a stereomicroscope with Cell^D Image capture system (Olympus) and quantified using Colony Counter Software (Microtec Nition, Japan). SAG (smoothened agonist, N-Methyl-N′-(3-pyridinylbenzyl)-N′-(3-chlorobenzo[b]thiophene-2-carbonyl)-1,4-diaminocyclohexane) (Axxora LCC), Harmine (Fisher Scientific), GDC-0449 (LC Laboratories), GANT61 (Merck Chemicals Ltd.) and 4SC Compound P (4SC Discovery GmbH, Germany) were dissolved in DMSO. The final DMSO concentration in all wild-type DAOY samples was 0.2%, in all other cell line experiments including DAOY shSUFU cells 0.1%. […]
(§2) The function of DYRK1 isoforms in SMO-independent/GLI-dependent pancreatic cancer and Ewing's sarcoma (EWS) cell lines PANC1 and A673, respectively, was analyzed. […]

[2] = system: tumor-initiating L3.6pl pancreatic cancer cells; experiment: Anchorage-independent 3D culture clonal growth (tumorsphere) assay, L3.6pl; type: cell-based; details: anchorage-independent 3D cultures
[3] = system: Hedgehog signaling pathway (GLI1, GLI2, PTCH1 expression) in DAOY cells; experiment: Western blot / qPCR of Hedgehog target genes in SAG-stimulated DAOY medulloblastoma cells; type: cell-based, human; details: for GLI1 protein expression: Western blot; for HH signaling / GLI target gene activation: SAG stimulated DAOY cells, Harmine 10 or 25 μM, Cpd P 1 or 5 μM
Description: (§3) DAOY cells (ATCC) were grown in MEM media (PAA Laboratories, Germany) supplemented with 10% fetal bovine serum (FBS) (PAA Laboratories, Germany), penicillin (62.5 μg/ml) and streptomycin ([…]) at 37° C. in an atmosphere containing 5% CO2. BSZ2 cells (So et al., 2006) were grown in 154-CF media (Life Technologies, UK) supplemented with 2% heat inactivated (56° C. for 30 minutes) and chelexed fetal bovine serum (FBS) (PAA Laboratories, Germany) (FBS was chelexed by adding to 50 mL FBS 10 g Chelex 100 (Bio-Rad Laboratories GmbH, Germany) followed by stirring for 60 min at RT; chelexed FBS was sterile filtered prior to use), penicillin (62.5 μg/ml) and streptomycin ([…]) at 37° C. in an atmosphere containing 5% CO2. Panc-1 and A673 cells (ATCC) were grown in DMEM media (PAA Laboratories, Germany) supplemented with 10% fetal bovine serum (FBS) (PAA Laboratories, Germany), penicillin (62.5 μg/ml) and streptomycin ([…]) at 37° C. in an atmosphere containing 5% CO2. For 3-dimensional (3D) cultures, 5×10^3 cells were seeded in 12-well plates in 0.4% select agar on top of 0.5% bottom select agar (Life Technologies, Germany) according to standard protocols of anchorage independent growth assays (Eberl et al., 2012). 3D cultures were grown for 4-6 weeks at 37° C. in a humidified atmosphere containing 5% CO2. Colony formation was documented on a stereomicroscope with Cell^D Image capture system (Olympus) and quantified using Colony Counter Software (Microtec Nition, Japan). SAG (smoothened agonist, N-Methyl-N′-(3-pyridinylbenzyl)-N′-(3-chlorobenzo[b]thiophene-2-carbonyl)-1,4-diaminocyclohexane) (Axxora LCC), Harmine (Fisher Scientific), GDC-0449 (LC Laboratories), GANT61 (Merck Chemicals Ltd.) and 4SC Compound P (4SC Discovery GmbH, Germany) were dissolved in DMSO. The final DMSO concentration in all wild-type DAOY samples was 0.2%, in all other cell line experiments including DAOY shSUFU cells 0.1%.
Total RNA was isolated using TRI-reagent (Molecular Research Center Inc.) followed by LiCl purification step. For this purpose, total RNA was dissolved in 100 mM Hepes pH 7.4/6M Urea and selectively precipitated by adding LiCl to a final concentration of 3M and incubating for 2 h at −20° C. Precipitated and purified RNA was used for cDNA synthesis using Superscript II reverse transcriptase (Life Technologies, Germany) according to the manufacturer's instructions. qPCR was done on a Rotorgene3000 (Qiagen, Germany) using iQ Sybr Green Supermix reagent (Bio-Rad Laboratories, UK). For qPCR analysis the following primer pairs (Microsynth AG, Switzerland) were used:
For Western blot analysis, cells were lysed in Laemmli buffer supplemented with PhosStop (Roche, Germany) and cOmplete EDTA-free Protease Inhibitor Cocktail (Roche, Germany). Proteins were visualized with horseradish peroxidase-conjugated secondary antibodies in combination with enhanced chemiluminescence detection system (GE Health Care, USA).
To address the effect of selected gene perturbations on canonical endogenous Hedgehog signaling in a human cancer cell line, the human medulloblastoma cell line (DAOY, ATCC ident. HTB-186) showing full responsiveness to Hedgehog activation by Smoothened agonist (SAG) as evidenced by activation of the direct Hedgehog target gene GLI1, a reliable and robust indicator of Hedgehog signaling pathway activity (FIG. 1) (Chen et al., 2002).
SAG stimulated DAOY cells were treated with Harmine (7-MeO-1-Me-9H-pyrido[3,4-b]-indole) (dissolved at room temperature as 25 mM stock solution in DMSO and used at final concentration of 10 μM or 25 μM), a naturally occurring DYRK1 inhibitor, as well as with Compound P (Cpd P, dissolved at room temperature in DMSO as 20 mM stock solution and used at final concentration of 1 μM or 5 μM, respectively), a small molecule inhibitor of DYRK1, which is structurally unrelated to Harmine.

[4] = system: GLI1 and PTCH1 expression in DAOY shSUFU cells; experiment: Western blot / qPCR in SUFU knockdown (shSUFU) DAOY cells, SMO-independent GLI activation; type: cell-based, human; details: for PTCH1 mRNA expression: qPCR
Description: as §3
In the examples of the present invention, RNAi knockdown experiments were facilitated by lentiviral RNAi production and transductions, which were carried out as described in Kasper et al, 2007, which is incorporated herein by reference (Kasper et al., 2007). The following shRNA constructs (Sigma Aldrich mission TRC library) were used and the following abbreviations are used herein: shRNA DYRK1A (TRCN0000000526), shRNA DYRK1B-1 (TRCN0000002139), shRNA DYRK1B-2 (TRCN0000355722), shSUFU (TRCN0000019466) and control scrambled shRNA (SHC002). […] Transduced cells were selected for puromycin resistance prior to further analysis.
Total RNA was isolated using TRI-reagent (Molecular Research Center Inc.) followed by LiCl purification step. […]

[5] = system: GLI1 protein expression in A673 cells; experiment: Western blot of Ewing sarcoma cell line A673; type: cell-based, human; details: for GLI1 protein expression: GDC-0449 0.5 μM
Description: as §1, §2

[6] = system: tumor-initiating PANC1 pancreatic cancer cells; experiment: Anchorage-independent 3D culture clonal growth (tumorsphere) assay, PANC1; type: cell-based, human; details: PANC1, anchorage-independent 3D cultures
Description: (§4) DAOY cells (ATCC) were grown in MEM media (PAA Laboratories, Germany) supplemented with 10% fetal bovine serum (FBS) (PAA Laboratories, Germany), penicillin (62.5 μg/ml) and streptomycin ([…]) at 37° C. in an atmosphere containing 5% CO2. BSZ2 cells (So et al., 2006) were grown in 154-CF media (Life Technologies, UK) supplemented with 2% heat inactivated (56° C. for 30 minutes) and chelexed fetal bovine serum (FBS) (PAA Laboratories, Germany) (FBS was chelexed by adding to 50 mL FBS 10 g Chelex 100 (Bio-Rad Laboratories GmbH, Germany) followed by stirring for 60 min at RT; chelexed FBS was sterile filtered prior to use), penicillin (62.5 μg/ml) and streptomycin ([…]) at 37° C. in an atmosphere containing 5% CO2. Panc-1 and A673 cells (ATCC) were grown in DMEM media (PAA Laboratories, Germany) supplemented with 10% fetal bovine serum (FBS) (PAA Laboratories, Germany), penicillin (62.5 μg/ml) and streptomycin ([…]) at 37° C. in an atmosphere containing 5% CO2. […] Colony formation was documented on a stereomicroscope with Cell^D Image capture system (Olympus) and quantified using Colony Counter Software (Microtec Nition, Japan). […]

[7] = system: GLI1 expression in BSZ2 cells; experiment: Western blot of GLI1 in Ptch-/- BCC cells (BSZ2); type: cell-based; details: mouse Ptch-/- BCC cells (BSZ2)
Description: as §4

DYRK1B = target: T1, DYRK1B (Homo sapiens, UniProt Q9Y463); experiment: In vitro DYRK1B kinase assay (33P-ATP, DYRKtide substrate, Reaction Biology Corp.); type: biochemical; details: 10 μM ATP, 20 μM DYRKtide
T1 construct: full-; Insect; N-terminal; length; GST; GST (N); purchased Reaction Biology Corp; host or cells: Insect
Description: (§5) The assay was carried out by Reaction Biology Corp., Malverne, Pa., USA according to specifications by Reaction Biology Corp., as detailed herein below and further described in Anastassiadis et al., Nature Biotechnology, 29 (2011) 1039-1045.
(§6) DYRK1A: The substrate DYRKtide (synthetic peptide […]) (SEQ ID NO: 5) was dissolved in freshly prepared Base Reaction Buffer (20 mM Hepes (pH 7.5), 10 mM MgCl2, 1 mM EGTA, 0.02% Brij35, 0.02 mg/ml BSA, 0.1 mM Na3VO4, 2 mM DTT, 1% DMSO) at a concentration of 20 μM. DYRK1A was added to the substrate solution in a concentration of 0.3 nM and gently mixed. Compound dilution series in DMSO were added to the reaction, followed 20 min later by addition of a mixture of ATP and ^33P ATP (0.01 μCi/μl final) to a final concentration of 10 μM. Reactions proceeded at 25° C. for 120 min, followed by spotting onto P81 ion exchange filter paper. Unbound phosphate was removed by extensive washing of the filters in 0.75% phosphoric acid. […] IC50 values and curve fits were obtained using Prism (Graph Pad Software).
The assay for DYRK1B was carried out as described above for DYRK1A, with the exception that instead of DYRK1A, DYRK1B was added to the substrate solution and gently mixed.
(§7) DYRK1A and DYRK1B used in the above assays are further described in the below table: […]

DYRK1A = target: T2, DYRK1A (Homo sapiens, UniProt Q13627); experiment: In vitro DYRK1A kinase assay (33P-ATP, DYRKtide substrate, Reaction Biology Corp.); type: biochemical; details: 10 μM ATP, 20 μM DYRKtide, 0.3 nM enzyme
T2 construct: full-; Insect; N-terminal; length; GST; GST (N); purchased Reaction Biology Corp; host or cells: Insect
Description: as §5, §6, §7

[8] = DAOY cells, 100 nM SAG 48 hours, starving conditions

T1 sequence (Q9Y463 whole entry): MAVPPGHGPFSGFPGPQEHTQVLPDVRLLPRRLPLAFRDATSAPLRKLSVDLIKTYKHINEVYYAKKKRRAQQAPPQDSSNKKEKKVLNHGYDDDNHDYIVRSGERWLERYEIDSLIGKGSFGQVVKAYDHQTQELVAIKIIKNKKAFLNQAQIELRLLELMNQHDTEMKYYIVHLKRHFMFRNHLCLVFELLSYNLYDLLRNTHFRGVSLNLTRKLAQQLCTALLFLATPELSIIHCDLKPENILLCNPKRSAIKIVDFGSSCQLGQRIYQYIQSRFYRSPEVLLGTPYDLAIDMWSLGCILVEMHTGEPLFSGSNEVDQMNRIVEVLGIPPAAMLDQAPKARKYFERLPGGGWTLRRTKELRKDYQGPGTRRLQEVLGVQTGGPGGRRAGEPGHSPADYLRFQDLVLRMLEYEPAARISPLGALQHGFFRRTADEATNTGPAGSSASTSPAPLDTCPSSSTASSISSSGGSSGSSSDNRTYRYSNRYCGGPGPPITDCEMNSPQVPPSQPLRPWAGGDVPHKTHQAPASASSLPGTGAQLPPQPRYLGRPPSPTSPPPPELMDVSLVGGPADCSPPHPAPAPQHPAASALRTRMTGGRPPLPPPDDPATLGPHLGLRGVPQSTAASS

| IC50 (DYRK1B) [nM] | IC50 (DYRK1A) [nM] | SMILES | GLI1 protein expression [1] | clonal growth (sphere numbers) [2] | GLI1 protein expression [3, 8] | GLI1 expression (protein) ([4]; Western blot) | PTCH1 mRNA expression [4] | GLI1 protein expression [5] | clonal growth (sphere numbers) [6] | Beta Catenin and STAT3 expression [1] | HH signaling / GLI target gene activation [3] | PTCH1 mRNA expression ([3]; qPCR, DAOY cells, 100 nM SAG 48 hours, starving conditions) | Beta Catenin expression [5] | GLI1 expression [7] | GLI1 mRNA expression [4] |
| --- | --- | --- | --- | --- | --- | --- | --- | --- | --- | --- | --- | --- | --- | --- | --- |
|  |  | CS(=O)(=O)c1ccc(C(=O)Nc2ccc(Cl)c(-c3ccccn3)c2)c(Cl)c1 [GDC-0449, 2-chloro-N-(4-chloro-3-(pyridin-2-yl)phenyl)-4-(methylsulfonyl)benzamide] | resistance; also recorded: inability | not | efficiently blocked | unaffected; also recorded: resistant | resistant | inability | not and did not affect |  |  |  |  |  |  |
|  |  | COc1ccc2c(c1)[nH]c1c(C)nccc12 [Harmine, 7-MeO-1-Me-9H-pyrido[3,4-b]-indole] | reduces; also recorded: reduced levels of GLI1 | reduces sphere numbers | significantly inhibited |  |  | reduces; also recorded: reduced levels of GLI1 | reduces sphere numbers; also recorded: reduced clonogenic growth | essentially unaffected | significant reduction | significantly inhibited | essentially unaffected | reduced GLI1 expression |  |
| 54.8 | 22.2 | FC(F)(F)c1ccc2[nH]c(Nc3ncccn3)nc2c1 [Compound P, N-(pyrimidin-2-yl)-5-(trifluoromethyl)-1H-benzo[d]imidazol-2-amine] |  |  | significantly inhibited |  |  |  |  |  | significant reduction |  |  |  |  |
|  |  | CN(C)c1ccccc1CN1CCCN(Cc2ccccc2N(C)C)C1c1ccncc1 [GANT61, 2,2′-[[Dihydro-2-(4-pyridinyl)-1,3(2H,4H)-pyrimidinediyl]bis-(methylene)]bis[N,N-dimethylbenzenamine)] |  |  |  |  | down-regulation; also recorded: sensitive |  |  |  |  |  |  |  | down-regulation |
